These results are taken from patent US20250129074A1, “CHIMERIC COMPOUND FOR TARGETED DEGRADATION OF ANDROGEN RECEPTOR PROTEIN, PREPARATION METHOD THEREFOR, AND MEDICAL USE THEREOF” (Jiangsu Hengrui Pharmaceuticals Co., Ltd., priority 2021, published 2025).

One series deals with LNCaP cells. The experiment in a line: Inhibition of LNCaP proliferation (CellTiter-Glo). The class given is cell-based. The following applies: Homo sapiens, 144 h, 0.1 nM R1881, six days; for Emax: read-out: Max (maximum proliferation inhibition rate). As to the method:
The plate was incubated in a 37° C., 5% CO2 cell incubator for three days. […] A blank control cell well containing 0.5% DMSO and a cell-free vehicle control well were set up. The plate was incubated in a 37° C., 5% CO2 cell incubator for six days.
In general terms: In ATP-based viability assays light output follows the ATP content of the culture.

The next series addresses T1, androgen receptor (AR) (Homo sapiens, UniProt P10275, T878A).
T1 construct: host or cells: LNCaP human prostate cancer cells
T1 sequence (P10275 1-920 T878A): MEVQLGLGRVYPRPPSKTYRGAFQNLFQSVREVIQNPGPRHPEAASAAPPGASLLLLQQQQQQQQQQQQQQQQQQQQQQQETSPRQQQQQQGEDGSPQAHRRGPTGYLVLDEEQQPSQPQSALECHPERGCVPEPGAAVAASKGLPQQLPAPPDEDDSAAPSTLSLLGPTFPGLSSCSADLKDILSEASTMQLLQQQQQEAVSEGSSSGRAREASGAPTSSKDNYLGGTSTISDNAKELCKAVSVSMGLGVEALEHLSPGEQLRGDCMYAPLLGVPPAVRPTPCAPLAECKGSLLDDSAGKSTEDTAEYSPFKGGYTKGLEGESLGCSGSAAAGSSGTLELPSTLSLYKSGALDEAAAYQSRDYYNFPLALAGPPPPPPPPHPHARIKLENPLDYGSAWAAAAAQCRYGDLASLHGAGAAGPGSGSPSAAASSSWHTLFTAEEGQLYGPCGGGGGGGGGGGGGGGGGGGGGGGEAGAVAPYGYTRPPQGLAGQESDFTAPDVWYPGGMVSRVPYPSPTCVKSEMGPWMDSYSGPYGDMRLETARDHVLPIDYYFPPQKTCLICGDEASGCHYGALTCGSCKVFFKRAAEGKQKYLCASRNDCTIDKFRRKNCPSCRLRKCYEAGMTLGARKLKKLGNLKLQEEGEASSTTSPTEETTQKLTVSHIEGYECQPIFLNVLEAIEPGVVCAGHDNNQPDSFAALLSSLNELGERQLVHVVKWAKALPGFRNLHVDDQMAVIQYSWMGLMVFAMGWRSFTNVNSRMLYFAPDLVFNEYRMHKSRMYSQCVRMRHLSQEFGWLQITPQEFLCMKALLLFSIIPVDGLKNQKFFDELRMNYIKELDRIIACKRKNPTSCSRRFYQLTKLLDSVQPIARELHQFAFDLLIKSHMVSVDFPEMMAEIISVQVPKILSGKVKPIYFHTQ
The experiment in a line: Degradation activity on androgen receptor in LNCaP cells (AR ELISA). It is filed as cell-based. The settings on record: 0.1 nM R1881, 24 hours; for DC50: read-out: LNCaP DC50; for Dmax: read-out: Max (maximum AR degradation rate). In a few lines:
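LNCaP cells were treated with compound, with a 0.5% DMSO blank control, for 24 h at 37 °C, 5% CO2. Cells were then lysed and the lysate clarified. AR protein level was read by ELISA.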
On the technique in general: An ELISA detects its analyte on a solid surface through an enzyme-linked reagent.

The nature of series [1]: Pharmacokinetic evaluation in SD rats. The settings on record: both sexes, rat, in vivo, po, i.g., 2.0 mg/kg; for Vd/F: read-out: Apparent distribution volume Vz/F; for AUC(0-t): read-out: Area under curve AUC0-t; for CL/F: read-out: Clearance rate CL/F; for half-life: read-out: Half-life T½ (converted); for Cmax: read-out: Plasma concentration Cmax. The protocol: SD rats were used as test animals.
32 SD rats, provided by Vital River Laboratory Animal Co., Ltd., with an equal number of males and females, were evenly divided into 8 groups. The animals were fasted overnight and then intragastrically dosed.
The dose administered was 2.0 mg/kg, and the volume was 10.0 mL/kg.
The procedure starting from the blood collection to the centrifugation was performed under ice-bath conditions. Access to food was given 2 hours after administration.

For series [2], the system named is LNCap-FGC xenograft tumors. The experiment in a line: Pharmacodynamic testing: LNCap-FGC subcutaneous xenograft in castrated CB17-SCID mice. The following applies: i.g.; for Mean tumor volume D 21 / Number of remaining animals/group / TGI D 21: qd/21 d. It is filed as in vivo. From the text: To evaluate the inhibition of the growth of castration-resistant prostate cancer LNCap-FGC subcutaneous xenograft tumors in male CB17-SCID mice by compounds of the present disclosure.
Test animals: CB17-SCID male mice, purchased from Beijing Vital River Laboratory Animal Technology Co., Ltd. (certificate No. SCXK(Beijing)2016-0006; animal certification No. 110011220107542683), weighing about 20.54-26.72 g on purchase. Housing conditions: 5 animals/cage, a 12/12-hour light/dark cycle, a constant temperature of 23±1° C. with humidity at 50 to 60%, ad libitum access to food and water.
0.2 mL (10×10^6 cells+Matrigel) of LNCaP FGC cells (Matrigel was added, in a 1:1 ratio by volume) in the logarithmic growth phase was subcutaneously inoculated into the right upper limb of each mouse. When the mean tumor volume reached 77 mm^3, male mice with stable tumor growth were selected and subjected to orchiectomy followed by three days of analgesic care. When the mean tumor volume reached 172 mm^3, grouping and administration were started. The day of grouping was defined as DO, and intragastric administration was started and performed once a day for 21 days. The 21th day after administration was defined as D21 (Table 7). For tumor-bearing mice, the tumor volume was measured with a vernier caliper and the body weight was measured with a balance twice a week, and data were recorded.
All data were plotted and statistically analyzed using Excel and GraphPad Prism 8 software.
The calculation formula for tumor volume (V) was: V=½×a×b^2, where a and b represent length and width, respectively.
Relative tumor proliferation rate T/C(%)=(T-T0)/(C-C0)×100 (%), where T and C represent the tumor volumes of a treatment group and the control group at the end of the experiment; T0 and C0 represent the tumor volumes at the beginning of the experiment.

Regarding `C[C@H]1CC2(CCN(c3ccc(C(=O)N4CCC(CN5CCN(c6cc(NC7CCC(=O)NC7=O)ccc6F)CC5)CC4)cc3)CC2)CN1c1ccc(C#N)c(Cl)c1` (stereo partly drawn) [Example 23, 2-Chloro-4-((3S)-8-(4-(4-((4-(5-((2,6-dioxopiperidin-3-yl)amino)-2-fluorophenyl)piperazin-1-yl)methyl)piperidine-1-carbonyl)phenyl)-3-methyl-2,8-diazaspiro[4.5]decan-2-yl)benzonitrile], in the series with LNCaP cells, the IC50 (commonly the concentration that inhibits the measured activity by half) amounted to 0.041 µM and the Emax is 76%. In addition, on androgen receptor (AR), the DC50 (usually the concentration at which degradation of the target reaches its halfway point) is 0.0061 µM and the Dmax stood at 96%. Besides, in series [1], the Vd/F amounted to 26.3 L/kg; the AUC(0-t) was found to be 703 ng·h/mL; the CL/F came to 51.2 mL/min/kg; the half-life – broadly, how long it takes for the measured level to halve – is 5.93 h. Moreover, the Cmax in series [1] stood at 81.6 ng/mL.
Turning to `C[C@H]1CC2(CCN(c3ccc(C(=O)N4CCC(CN5CCN(c6cccc(NC7CCC(=O)NC7=O)c6)CC5)CC4)nc3)CC2)CN1c1ccc(C#N)c(Cl)c1` (stereo partly drawn) [Example 12, 2-Chloro-4-((3S)-8-(6-(4-((4-(3-((2,6-dioxopiperidin-3-yl)amino)phenyl)piperazin-1-yl)methyl)piperidine-1-carbonyl)pyridin-3-yl)-3-methyl-2,8-diazaspiro[4.5]decan-2-yl)benzonitrile], in the series on LNCaP cells, 0.048 µM corresponded to half-maximal inhibition (IC50) and the Emax worked out at 73%. On androgen receptor (AR), the DC50 came out at 0.0013 µM and the Dmax stood at 97%. Further, in series [1], the Vd/F is 63.1 L/kg, the AUC(0-t) is 304 ng·h/mL, the CL/F stood at 139 mL/min/kg and the half-life is 5.19 h. Further, the Cmax in series [1] is 37.4 ng/mL.
Regarding `C[C@H]1CC2(CCN(c3ccc(C(=O)N4CCC(CN5CCN(c6cccc(N[C@H]7CCC(=O)NC7=O)c6)CC5)CC4)cc3F)CC2)CN1c1ccc(C#N)c(Cl)c1` [Example 15-1, 2-Chloro-4-((S)-8-(4-(4-((4-(3-(((S)-2,6-dioxopiperidin-3-yl)amino)phenyl)piperazin-1-yl)methyl)piperidine-1-carbonyl)-2-fluorophenyl)-3-methyl-2,8-diazaspiro[4.5]decan-2-yl)benzonitrile], in series [2] (1.5, 5 and 15 mpk, once daily for 21 days), the “effect on the body weight of the mice” value is on record as “little effect”. In addition, the “Mean tumor volume D 21” value in series [2] (1.5 mpk) was determined as 255 mm^3; in series [2] (5 mpk), 188 mm^3; in series [2] (15 mpk), 117 mm^3. The “Number of remaining animals/group” value in series [2] (1.5 mpk), in series [2] (5 mpk) and in series [2] (15 mpk) was 8/8 in each case. In addition, the “TGI D 21” value in series [2] (1.5 mpk) is reported as 94%; in series [2] (5 mpk), 99%; in series [2] (15 mpk), 104%.
In the case of `C[C@H]1CC2(CCN(c3ccc(C(=O)N4CCC(CN5CCN(c6cccc(NC7CCC(=O)NC7=O)c6)CC5)CC4)cc3)CC2)CN1c1ccc(C#N)c(Cl)c1` (stereo partly drawn) [Example 11, 2-Chloro-4-((3S)-8-(4-(4-((4-(3-((2,6-dioxopiperidin-3-yl)amino)phenyl)piperazin-1-yl)methyl)piperidine-1-carbonyl)phenyl)-3-methyl-2,8-diazaspiro[4.5]decan-2-yl)benzonitrile], in the series on LNCaP cells, the IC50 stood at 0.082 µM and the Emax is 68%. For the same compound, at androgen receptor (AR), the DC50 was determined as 0.0073 µM and the Dmax was determined as 98%. In addition, in series [1], the Vd/F was 34.8 L/kg, the AUC(0-t) amounted to 644 ng·h/mL, the CL/F amounted to 60.2 mL/min/kg and the half-life was 6.75 h. Also, in series [1], the Cmax came to 69.4 ng/mL.
On to `C[C@H]1CC2(CCN(c3ccc(C(=O)N4CCC5(CC4)CC(N4CCN(c6ccc(N7CCC(=O)NC7=O)cc6)CC4)C5)cc3)CC2)CN1c1ccc(C#N)c(Cl)c1` [Example 28, (S)-2-Chloro-4-(8-(4-(2-(4-(4-(2,4-dioxotetrahydropyrimidin-1(2H)-yl)phenyl)piperazin-1-yl)-7-azaspiro[3.5]nonane-7-carbonyl)phenyl)-3-methyl-2,8-diazaspiro[4.5]decan-2-yl)benzonitrile], for which, in the series on LNCaP cells, half-maximal inhibition (IC50) was put at 0.017 µM and the Emax is 61%. For the same compound, on androgen receptor (AR), the DC50 stood at 0.0058 µM and the Dmax is 97%. In series [1], the Vd/F came out at 66.6 L/kg, the AUC(0-t) is 315 ng·h/mL, the CL/F was 108 mL/min/kg and the half-life is 7.17 h. In addition, the Cmax in series [1] was determined as 25.5 ng/mL.
As for `N#Cc1ccc(O[C@H]2CC[C@H](NC(=O)c3ccc(N4CCC(CN5CCN(c6cc7c(cc6F)C(=O)N(C6CCC(=O)NC6=O)C7=O)CC5)CC4)nn3)CC2)cc1Cl` (stereo partly shown) [ARV-110, reference compound], in series [2] (1 mpk), the “Mean tumor volume D 21” value came out at 789 mm^3, the “Number of remaining animals/group” value is recorded as 8/8 and the “TGI D 21” value is reported as 57%. In series [2] (10 mpk), the “Mean tumor volume D 21” value was determined as 293 mm^3, the “Number of remaining animals/group” value is on record as 8/8 and the “TGI D 21” value is on record as 92%.
